test system: TCF4/β-catenin transcription (TOPFlash) in SW480 cells; experiment: Reporter gene assay (TOPFlash luciferase); assay type: cell-based; conditions: Homo sapiens, SW480
Method in brief: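 SW480 cells transiently co-transfected with TOPFlash and pRL-null (4:1 µg) using Superfect, then reseeded at 3×10^4 cells/well and incubated overnight at 37 °C. Compound treatment lasted 24 h before luciferase read-out.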

Q: `C=CCN1CC(=O)N2[C@@H](Cc3ccc(OC(=O)NCCN(C)C)cc3)C(=O)N(Cc3ccc(F)cc3F)C[C@@H]2N1C(=O)NCc1ccccc1` [Compound 173] was tested. Which IC50 did it give?
A: 1.8 ± 0.2 µM

same assay, conditions: Homo sapiens, SW480, Table 4; Reporter gene assay as described in Example 6; read-out: IC50

Q: How did the IC50 turn out when `[2H]c1cc(O)cc([2H])c1C[C@H]1C(=O)N(Cc2cccc3ccccc23)C[C@H]2N1C(=O)CN(C)N2C(=O)NCc1ccccc1` [Compound 172] was run?
A: 2.9 ± 0.4 µM

Q: For `C=CCN1CC(=O)N2[C@@H](Cc3ccc(OP(=O)(O)O)cc3)C(=O)N(Cc3ccccc3)C[C@@H]2N1C(=O)NCc1ccccc1` [Compound 174], which IC50 is on record?
A: 1 ± 0.1 µM

Q: `C=CCN1CC(=O)N2[C@@H](Cc3ccc(O)cc3)C(=O)N(Cc3ccc(F)cc3F)C[C@@H]2N1C(=O)NCc1ccc(F)cc1` [Compound 175] was tested. Which IC50 did it give?
A: 5.4 ± 0.5 µM

Q: Which IC50 does the source give for `CC(C)N1CC(=O)N2[C@@H](Cc3ccc(O)cc3)C(=O)N(Cc3ccc(F)cc3F)C[C@@H]2N1C(=O)NCc1ccccc1` [Compound 176] here?
A: 4 ± 0.4 µM

Q: Which IC50 does the source give for `C=CCN1CC(=O)N2[C@@H](Cc3ccc(O)cc3)C(=O)N(Cc3ccc(F)cc3F)[C@@H](C)[C@@H]2N1C(=O)NCc1ccccc1` [Compound 177] here?
A: 5.3 ± 0.4 µM

Q: `C=CCN1CC(=O)N2[C@@H](Cc3ccc(O)cc3)C(=O)N(Cc3ccc(F)c(F)c3)C[C@@H]2N1C(=O)NCc1ccccc1` [Compound 178] was tested. Which IC50 did it give?
A: 1.2 ± 0.1 µM

Q: For `C=CCN1CC(=O)N2[C@@H](Cc3ccc(O)cc3)C(=O)N(Cc3ccc(F)cc3F)C[C@@H]2N1C(=O)NCc1ccc(Cl)c(Cl)c1` [Compound 179], which IC50 is on record?
A: 2.3 ± 0.2 µM

Q: How did the IC50 turn out when `C=CCN1CC(=O)N2[C@@H](Cc3ccc(O)cc3)C(=O)N(Cc3ccc(Cl)c(Cl)c3)C[C@@H]2N1C(=O)NCc1ccccc1` [Compound 180] was run?
A: 1.3 ± 0.1 µM

Q: How did the IC50 turn out when `C=CCN1CC(=O)N2[C@@H](CC3(O)C=CC(=O)C=C3)C(=O)N(Cc3ccc(F)cc3F)C[C@@H]2N1C(=O)NCc1ccccc1` [Compound 181] was run?
A: 6.7 ± 0.6 µM

Q: For `C=CCN1CC(=O)N2[C@@H](Cc3ccc(O)cc3)C(=O)N(Cc3cccc4scnc34)C[C@@H]2N1C(=O)NCc1ccccc1` [Compound 182], which IC50 is on record?
A: 0.6 ± 0.04 µM

Q: For `C=CCN1CC(=O)N2[C@@H](Cc3ccc(O)cc3)C(=O)N([C@H](C)c3ccccc3)C[C@@H]2N1C(=O)NCc1ccccc1` [Compound 183], which IC50 is on record?
A: 12.8 ± 0.9 µM

Q: For `C=CCN1CC(=O)N2[C@@H](CN([C@H](C)c3ccccc3)C(=O)[C@@H]2Cc2ccc(O)cc2)N1C(=O)NCc1ccccc1` [Compound 184], which IC50 is on record?
A: 1.2 ± 0.1 µM

Q: `C=CCN1CC(=O)N2[C@@H](Cc3ccc(O)cc3)C(=O)N([C@@H](C)c3ccc(Cl)c4cccnc34)C[C@@H]2N1C(=O)NCc1ccccc1` [Compound 185] was tested. Which IC50 did it give?
A: 23.4 ± 1.9 µM

Q: For `C=CCN1CC(=O)N2[C@@H](Cc3ccc(O)c(F)c3)C(=O)N(Cc3ccc(F)cc3)C[C@@H]2N1C(=O)NCc1ccccc1` [Compound 186], which IC50 is on record?
A: 3.6 ± 0.3 µM

Q: `C=CCN1CC(=O)N2[C@@H](Cc3ccc(O)cc3)C(=O)N(Cc3ccc4c(c3)OCCO4)C[C@@H]2N1C(=O)NCc1ccccc1` [Compound 187] was tested. Which IC50 did it give?
A: 1.1 ± 0.2 µM

Q: Which IC50 does the source give for `C=CCN1CC(=O)N2[C@@H](CN([C@H](C)c3ccc(F)cc3F)C(=O)[C@@H]2Cc2ccc(O)cc2)N1C(=O)NCc1ccccc1` [Compound 188] here?
A: 4.4 ± 0.2 µM

Q: How did the IC50 turn out when `C=CCN1CC(=O)N2[C@@H](CN([C@H](C)c3ccc(Cl)c4cccnc34)C(=O)[C@@H]2Cc2ccc(O)cc2)N1C(=O)NCc1ccccc1` [Compound 189] was run?
A: 8.7 ± 0.4 µM

Q: For `C=CCN1CC(=O)N2[C@@H](Cc3ccc(O)cc3)C(=O)N(Cc3cccc(NC)c3)C[C@@H]2N1C(=O)NCc1ccccc1` [Compound 193], which IC50 is on record?
A: 2.5 ± 0.5 µM

Q: With `C=CCN1CC(=O)N2[C@@H](Cc3ccc(O)cc3)C(=O)N(Cc3cccc(N(C)C(=O)CCCCC)c3)C[C@@H]2N1C(=O)NCc1ccccc1` [Compound 194] as the compound, how does the IC50 read?
A: 3.2 ± 0.4 µM

Q: For `C[C@H](c1ccc(F)cc1F)N1CC2N(C(=O)CN(C)N2C(=O)NCc2ccccc2)[C@@H](Cc2ccc(O)cc2)C1=O` (stereo partly drawn) [Compound 195], which IC50 is on record?
A: 22.3 ± 2.3 µM

Q: With `C[C@@H](c1ccc(Cl)c2cccnc12)N1CC2N(C(=O)CN(C)N2C(=O)NCc2ccccc2)[C@@H](Cc2ccc(O)cc2)C1=O` (stereo partly drawn) [Compound 196] as the compound, how does the IC50 read?
A: 27.4 ± 2.8 µM

Q: How did the IC50 turn out when `C=CCN1CC(=O)N2[C@@H](Cc3ccc(OP(=O)(O)O)cc3)C(=O)N(Cc3cccc4scnc34)C[C@@H]2N1C(=O)NCc1ccccc1` [Compound 197] was run?
A: 0.7 ± 0.2 µM

Q: For `C[C@H](c1ccc(Cl)c2cccnc12)N1CC2N(C(=O)CN(C)N2C(=O)NCc2ccccc2)[C@@H](Cc2ccc(O)cc2)C1=O` (stereo partly drawn) [Compound 198], which IC50 is on record?
A: 5.8 ± 0.3 µM

Q: Which IC50 does the source give for `C=CCN1CC(=O)N2[C@@H](Cc3ccc(O)cc3)C(=O)N(Cc3cccc4cccnc34)C[C@@H]2N1C(=O)NCc1ccc(Cl)c(Cl)c1` [Compound 199] here?
A: 1 ± 0.2 µM

Q: How did the IC50 turn out when `CN1CC(=O)N2[C@@H](Cc3ccc(O)cc3)C(=O)N(Cc3ccc(F)cc3F)C[C@@H]2N1C(=O)NCc1ccc(F)cc1` [Compound 200] was run?
A: 8.6 ± 0.4 µM

Q: `CN1CC(=O)N2[C@@H](Cc3ccc(O)cc3)C(=O)N(Cc3ccc(F)cc3F)C[C@@H]2N1C(=O)NCc1ccc(Br)cc1` [Compound 201] was tested. Which IC50 did it give?
A: 5.8 ± 0.4 µM

Q: Which IC50 does the source give for `C=CCN1CC(=O)N2[C@@H](Cc3ccc(O)cc3)C(=O)N(Cc3cccc4c3OCO4)C[C@@H]2N1C(=O)NCc1ccccc1` [Compound 202] here?
A: 0.7 ± 0.1 µM

Q: How did the IC50 turn out when `C=CCN1CC(=O)N2[C@@H](Cc3ccc(O)cc3)C(=O)N(Cc3cccc4c3OCCO4)C[C@@H]2N1C(=O)NCc1ccccc1` [Compound 203] was run?
A: 0.7 ± 0.1 µM

Q: For `C=CCN1CC(=O)N2[C@@H](Cc3ccc(O)cc3)C(=O)N(Cc3cccc4c3OCCO4)C[C@@H]2N1C(=O)NCc1ccc(Cl)c(Cl)c1` [Compound 204], which IC50 is on record?
A: 1.9 ± 0.1 µM

Q: Which IC50 does the source give for `C=CCN1CC(=O)N2[C@@H](Cc3ccc(O)cc3)C(=O)N(Cc3cccc4c3OCC4)C[C@@H]2N1C(=O)NCc1ccccc1` [Compound 205] here?
A: 3.5 ± 0.8 µM

Q: How did the IC50 turn out when `C=CCN1CC(=O)N2[C@@H](Cc3ccc(O)cc3)C(=O)N(Cc3cccc(OC(F)(F)F)c3)C[C@@H]2N1C(=O)NCc1ccccc1` [Compound 206] was run?
A: 1.3 ± 0.1 µM

Q: With `C=CCN1CC(=O)N2[C@@H](Cc3ccc(O)cc3)C(=O)N(Cc3ccccc3)C[C@@H]2N1C(=O)NCc1ccc(Cl)c(Cl)c1` [Compound 207] as the compound, how does the IC50 read?
A: 1.5 ± 0.1 µM

Q: Which IC50 does the source give for `C=CCN1CC(=O)N2[C@@H](Cc3ccc(O)cc3)C(=O)N(Cc3ccc(OC)cc3)C[C@@H]2N1C(=O)NCc1ccccc1` [Compound 208] here?
A: 1.6 ± 0.4 µM

Q: For `C=CCN1CC(=O)N2[C@@H](Cc3ccc(OP(=O)(O)O)cc3)C(=O)N(Cc3ccc(OC)cc3)C[C@@H]2N1C(=O)NCc1ccccc1` [Compound 209], which IC50 is on record?
A: 1.9 ± 0.5 µM

Q: With `C=CCN1CC(=O)N2[C@@H](Cc3ccc(O)cc3)C(=O)N(Cc3cccc4scnc34)C[C@@H]2N1C(=O)NCc1ccc(Cl)c(Cl)c1` [Compound 210] as the compound, how does the IC50 read?
A: 0.9 ± 0.1 µM

Q: How did the IC50 turn out when `C=CCN1CCN2[C@@H](Cc3ccc(O)cc3)C(=O)N(Cc3ccc(OC(F)(F)F)cc3)C[C@@H]2N1C(=O)NCc1ccccc1` [Compound 211] was run?
A: 2.3 ± 0.2 µM

Q: Which IC50 does the source give for `C=CCN1CC(=O)N2[C@@H](Cc3ccc(OP(=O)(O)O)cc3)C(=O)N(Cc3ccc4c(c3)OCCO4)C[C@@H]2N1C(=O)NCc1ccccc1` [Compound 212] here?
A: 1.3 ± 0.3 µM

Q: `C=CCN1CCN2[C@@H](Cc3ccc(O)cc3)C(=O)N(Cc3ccc(OC)cc3OC)C[C@@H]2N1C(=O)NCc1ccccc1` [Compound 213] was tested. Which IC50 did it give?
A: 1.7 ± 0.3 µM

Q: `C=CCN1CC(=O)N2[C@@H](Cc3ccc(O)cc3)C(=O)N(Cc3cccc(OC)c3OC)C[C@@H]2N1C(=O)NCc1ccccc1` [Compound 214] was tested. Which IC50 did it give?
A: 0.6 ± 0.2 µM

Q: How did the IC50 turn out when `C=CCN1CC(=O)N2[C@@H](Cc3ccc(O)cc3)C(=O)N(Cc3ccc(OC)cc3)C[C@@H]2N1C(=O)NCc1ccc(Cl)c(Cl)c1` [Compound 215] was run?
A: 18 ± 5.1 µM

Q: For `C=CCN1CC(=O)N2[C@@H](Cc3ccc(O)c(F)c3)C(=O)N(Cc3cccc4scnc34)C[C@@H]2N1C(=O)NCc1ccccc1` [Compound 216], which IC50 is on record?
A: 1.6 ± 0.2 µM

Reference: US7671054B1, “Reverse-turn mimetics and method relating thereto” (Choongwae Pharma Corporation, priority 2001, dated 2010)
